Experimental data reported in US8648080B2, “Acid pump antagonist for the treatment of diseases involved in abnormal gastrointestinal motility” (RaQualia Pharma Inc., priority 2009, dated 2014).

Test system: gastrointestinal motility in the gastric antrum and duodenum
Experiment: gastrointestinal motility under pentagastrin-stimulated gastric acid secretion in conscious dogs with force transducers
Type: in vivo, Beagle dogs
Method: Beagle dogs surgically wearing a force transducer at gastric antrum and serosal side of duodenum were used, and the motion of the gastric antrum and duodenum under wakefulness were observed. After confirming the phase III in the hungry condition, gastric acid secretion was stimulated by pentagastrin subcutaneous infusion (6 microg/kg/hr). Pentagastrin infusion was continued until the end of the study. After about 2 hours from pentagastrin infusion, an acid pump antagonist (compound A) was orally administered, and then gastrointestinal motility was continuously observed for 2-3 hours. In FIG. 1, the horizontal axis represents the time at measuring, and the vertical axis represents the gastrointestinal contraction towards muscle bridge of gastric antrum or duodenum. The phase III contraction disappeared by pentagastrin stimulation, 6 microg/kg/hr, which is known to promote gastric acid secretion; and uncoordinated contraction, which is different from the contraction of postprandial period with solid food, occurred in the stomach and duodenum.

Compound: COCCn1c(C)nc2cc(C(=O)N(C)C)c3c(c21)OC(c1ccccc1)CC3 (single isomer, unassigned; (-)) [compound A, (−)-1-(2-methoxyethyl)-N,N,2-trimethyl-8-phenyl-1,6,7,8-tetrahydrochromeno[7,8-d]imidazole-5-carboxamide]
- effect on gastrointestinal motility (phase III contraction / IMC) (0.3 mg/kg orally, about 2 hours after start of pentagastrin s.c. infusion 6 microg/kg/hr, hungry condition, FIG. 1): the phase III contraction occurred in the stomach and duodenum
- time after administration at which phase III contraction occurred (0.3 mg/kg orally, pentagastrin infusion 6 microg/kg/hr, stomach and duodenum): one

Compound: Cc1cccc(C)c1CNc1cc(C(=O)NCCO)cn2c(C)c(C)nc12 [AZD0865, 8-[{2,6-dimethylbenzyl}amino]-N-[2-hydroxyethyl]-2,3-dimethyl-imidazo[1,2-a]pyridin-6-carboxamide]
- time after dosing until irregular contraction tended to subside (1.5 mg/kg orally, pentagastrin infusion, method as Example 1): one
- effect on gastrointestinal motility (phase III contraction / IMC) (1.5 mg/kg orally, pentagastrin infusion, method as Example 1, FIG. 4): IMC occurred

Compound: Cc1nc2c(O[C@H]3CCOc4cc(F)cc(F)c43)cc(C(=O)N(C)C)cc2[nH]1 [compound B, (S)-(−)-4-[(5,7-difluoro-3,4-dihydro-2H-chromen-4-yl)oxy]-N,N,2-trimethyl-1H-benzimidazole-6-carboxamide]
- time after dosing until IMC occurred (1 mg/kg orally, pentagastrin infusion, method as Example 1): one
- effect on gastrointestinal motility (phase III contraction / IMC) (1 mg/kg orally, pentagastrin infusion, method as Example 1, FIG. 2): IMC occurred

Compound: Cc1nc(Nc2ccc(F)cc2)nc(N2CCc3ccccc3C2C)c1C.Cl (centres unmarked) [revaprazan, 5,6-dimethyl-2-(4-fluoro-phenylamino)-4-(1-methyl-1,2,3,4-tetrahydroisoquinoline-2-yl)pyrimidine hydrochloride]
- time after dosing until irregular contraction tended to subside (10 mg/kg orally, pentagastrin infusion, method as Example 1): one
- effect on gastrointestinal motility (phase III contraction / IMC) (10 mg/kg orally, pentagastrin infusion, method as Example 1, FIG. 3): IMC occurred
